Data on twelve molecules can be found in patent US4323547A, “Labeled fatty acids and method of making and using same” (priority 1978, dated 1982).

One series has as its system heart muscle. The experiment in a line: Heart muscle uptake and elimination of radiolabelled fatty acids after tail vein injection in mice. It counts as in vivo, NMRI mice. The protocol:
(§1) Animal experiments with mice were carried out using the product resulting from the high pressure liquid chromatographic purification after evaporation of the eluate to dryness in a rotary evaporator and the dissolution of the product in human serum albumin. The solution is filtered and injected in aliquot portions to the tail vein of each animal.
(§2) The following table assembles the results of comparative tests with the compounds of the invention and prior art compounds: […]

Assay in series [1]: as above
The series is classed as in vivo, NMRI mice. The settings on record: mouse, in vivo, iv; for tissue uptake at 2 min: NMRI mice, tail vein injection in human serum albumin, read-out: maximum 18F activity in the heart muscle. The procedure:
as §1, §2

The mark [2] stands for this setting: comparative tests, table 2, heart.
The mark [3] stands for this setting: NMRI mice, tail vein injection in human serum albumin.

As to `CCCCCCCCCCCCCCCCC([123I])C(=O)O` (stereo not shown) [2-^123 I-Stearic acid], in the series on heart muscle (mouse, in vivo), the “Max. Enrichment in % of Injected Dose per Heart” value (shortened to “Max. Enrichment in % … per Heart”) is listed as 1.411 ± 0.1 % of Injected Dose per Heart. Also, in the series on heart muscle (mouse, in vivo, iv), the “Elimination Half-time, rapid elimination” value turned out to be 2 ± 0.4 min; the “Elimination Half-time, slow elimination” value came out at 13 ± 2.7 min; the “Time to Max. Enrichment” value lay within 0.5 to 1 min.

Turning to `O=C(O)CCCCCCCCCCCCCCCC[123I]` [17-^123 I-Heptadecanoic acid], in the series on heart muscle (mouse, in vivo), the “Max. Enrichment in % … per Heart” value is recorded as 3.97 ± 0.4 % of Injected Dose per Heart. In the series on heart muscle (mouse, in vivo, iv), the “Elimination Half-time, rapid elimination” value is given as 2.1 ± 0.4 min; the “Elimination Half-time, slow elimination” value is listed as 25 ± 5.0 min; the “Time to Max. Enrichment” value is on record as 0.25 min.

For the molecule `CCCCCCCCCCCCCCCCC([18F])C(=O)O` (stereo not shown) [2-^18 F-Stearic acid], the “Max. Enrichment in % … per Heart” value in the series with heart muscle (comparative tests, table 2) was 1.34 ± 0.1 % of Injected Dose per Heart. Moreover, in the series on heart muscle (setting [2]), the “Elimination Half-time, rapid elimination” value came out at 0.5 ± 0.1 min; the “Elimination Half-time, slow elimination” value is listed as 5 ± 1.5 min; the “Time to Max. Enrichment” value is listed as 1 min.

As to `O=C(O)CCCCCCCCCCCCCCC[123I]` [16-^123 I-Palmitic acid], the “Max. Enrichment in % … per Heart” value in the series with heart muscle (mouse, in vivo) was 3.36 ± 0.4 % of Injected Dose per Heart. In the series with heart muscle (mouse, in vivo, iv), the “Elimination Half-time, rapid elimination” value is 2.4 ± 0.5 min; the “Elimination Half-time, slow elimination” value was found to be 33 ± 6.6 min; the “Time to Max. Enrichment” value was determined as 0.5 min.

Turning to `CCCCCCCCCCCCCCCCC([77Br])C(=O)O` (stereo not shown) [2-^77 Br-Stearic acid], in the series on heart muscle (mouse, in vivo), the “Max. Enrichment in % … per Heart” value is 1.47 ± 0.3 % of Injected Dose per Heart. In the series with heart muscle (mouse, in vivo, iv), the “Elimination Half-time, rapid elimination” value worked out at 1 ± 0.2 min; the “Elimination Half-time, slow elimination” value is listed as 18 ± 3.6 min; the “Time to Max. Enrichment” value came to 1 min.

Regarding `O=C(O)CCCCCCCCCCCCCCCC[77Br]` [17-^77 Br-Heptadecanoic acid], the “Max. Enrichment in % … per Heart” value in the series with heart muscle (mouse, in vivo) is given as 2.210 ± 0.6 % of Injected Dose per Heart. In the series with heart muscle (mouse, in vivo, iv), the “Elimination Half-time, rapid elimination” value is on record as 0.6 ± 0.1 min; the “Elimination Half-time, slow elimination” value was 36 ± 7.2 min; the “Time to Max. Enrichment” value came out at 0.5 min.

For the molecule `O=C(O)CCCCCCCCCCCCCCC[18F]` [16-^18 F-Palmitic acid, 16-^18 F hexadecanoic acid], in the series on heart muscle (setting [3]), the “dropoff of heart activity, long-duration component” value (“dropoff … long-duration component” below) is “eighteen to fifty-one”; the “dropoff of heart activity, short-duration component” value (shortened to “dropoff … short-duration component”) is on record as “two to six”; the “time within which the activity reaches a maximum in heart muscle” value is “two”. The “Max. Enrichment in % … per Heart” value with heart muscle (comparative tests, table 2) is recorded as 4.35 ± 1.3 % of Injected Dose per Heart. Moreover, in the series with heart muscle (setting [2]), the “Elimination Half-time, rapid elimination” value is recorded as 3 ± 0.8 min; the “Elimination Half-time, slow elimination” value was 44 ± 11 min; the “Time to Max. Enrichment” value came out at 0.25 min. The tissue uptake at 2 min in series [1] was about 40 %ID/g.

Consider `CCCCCCCCCCCCCCCCC([34Cl])C(=O)O` (stereo not shown) [2-^34m Cl-Stearic acid], for which the “Max. Enrichment in % … per Heart” value in the series with heart muscle (mouse, in vivo) is given as 2.03 ± 0.1 % of Injected Dose per Heart. Also, in the series with heart muscle (mouse, in vivo, iv), the “Elimination Half-time, rapid elimination” value was determined as 0.9 ± 0.2 min; the “Elimination Half-time, slow elimination” value was found to be 9 ± 1.8 min; the “Time to Max. Enrichment” value was 1 min.

For the molecule `O=C(O)CCCCCCCCCCCCCCCC[34Cl]` [17-^34m Cl-Heptadecanoic acid], in the series on heart muscle (comparative tests, table 2), the “Max. Enrichment in % … per Heart” value is 2.16 ± 0.6 % of Injected Dose per Heart. Also, in the series with heart muscle (setting [2]), the “Elimination Half-time, rapid elimination” value is 0.9 ± 0.2 min; the “Elimination Half-time, slow elimination” value is recorded as 23 ± 4.7 min; the “Time to Max. Enrichment” value is 0.25 min.

On to `CCCCCCCCCCCCCCC[11C](=O)O` [1-[^11 C] Palmitic acid], for which the “Max. Enrichment in % … per Heart” value in the series on heart muscle (comparative tests, table 2) is listed as 3.87 ± 1.0 % of Injected Dose per Heart. For the same molecule, in the series with heart muscle (setting [2]), the “Elimination Half-time, slow elimination” value turned out to be 33 ± 6.5 min and the “Time to Max. Enrichment” value is on record as 0.25 min. Besides, in the series on heart muscle (mouse, in vivo, iv), the “Elimination Half-time, rapid elimination” value was found to be 0.4 ± 0.1 min.

`O=C(O)CCCCCCCCCCCCCCCC[18F]` [17-^18 F-Heptadecanoic acid]: in the series on heart muscle (setting [3]), the “dropoff … long-duration component” value is recorded as “eighteen to fifty-one”; the “dropoff … short-duration component” value is recorded as “two to six”; the “time within which the activity reaches a maximum in heart muscle” value is recorded as “two”. In addition, the “Max. Enrichment in % … per Heart” value in the series on heart muscle (comparative tests, table 2) is listed as 4.812 ± 0.8 % of Injected Dose per Heart. In the series with heart muscle (setting [2]), the “Elimination Half-time, rapid elimination” value was determined as 6 ± 1.5 min; the “Elimination Half-time, slow elimination” value amounted to 18 ± 6 min; the “Time to Max. Enrichment” value is recorded as 0.5 min. In addition, the tissue uptake at 2 min in series [1] was about 40 %ID/g. In series [1] (general description, read-out: maximum pickup in heart muscle), the tissue uptake was about 40 %ID/g.

For “(9/10)-^18 F-stearic acid [9/10-^18 F-Stearic acid]”, in the series on heart muscle (setting [3]), the “dropoff … long-duration component” value is given as “eighteen to fifty-one”; the “dropoff … short-duration component” value is “two to six”; the “time within which the activity reaches a maximum in heart muscle” value is “two”. Moreover, the “maximum 18F activity in the heart muscle” value in the series with heart muscle (NMRI mice, tail vein injection in human serum albumin, 2 min) is given as “about 40 % gram (heart)”. The “Max. Enrichment in % … per Heart” value with heart muscle (comparative tests, table 2) is reported as 4.25 ± 0.9 % of Injected Dose per Heart. For the same molecule, in the series with heart muscle (setting [2]), the “Elimination Half-time, rapid elimination” value was 4 ± 1 min; the “Elimination Half-time, slow elimination” value came to 24 ± 7 min; the “Time to Max. Enrichment” value was determined as 0.5 min.
